Each structure is given as a SMILES string.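 Dose response: 5 concentrations. Exposure: 48 h. Format: 96-well plates. Endpoint: linear interpolation; highest concentration if not reached. TGI is the concentration that stops growth completely.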

Experiment in all cases: NCI anticancer screen, dose series, 48 h
The subject of test [1] is MDA-MB-231 breast.
The subject of test [2] is HCC-2998 colon.
Test [3] relates to HS 578T breast.
The test system of test [4] is SK-MEL-5 melanoma.
Test [5] has as its system NCI-H23 lung.
The test system of test [6] is U251 CNS.
Test [7] concerns M14 melanoma.
Test [8] deals with BT-549 breast.
Test [9] concerns NCI-H460 lung.
Test [10] concerns SW-620 colon.
For test [11], the system named is SN12C renal.
Test [12] deals with SR leukemia.
The test system of test [13] is IGROV1 ovarian.
Test [14] relates to UACC-257 melanoma.
Test [15] relates to OVCAR-4 ovarian.
Test [16] concerns MDA-MB-435.
The test system of test [17] is HCT-116 colon.
The subject of test [18] is OVCAR-3 ovarian.
The test system of test [19] is SNB-19 CNS.
Test [20] deals with NCI-H522 lung.

In the case of `S=C1NNC2(C(=S)N1)c1ccccc1-c1ccccc12`, the TGI in test [1], in [2], in test [3], in [4], in test [5] and in test [6] was over 10 µM in each case. Besides, the TGI in test [7], in test [8], in [9], in [10], in test [11] and in [12] was over 10 µM in each case. The TGI in [13], in [14] and in [15] was over 10 µM each time.
As to `NC1NCCC(=O)N1CCc1c[nH]c2ccccc12` (configuration not stated), the TGI in test [16] was 30.7 µM; in test [1], 34.4 µM; in test [2] it was 35.2 µM; in test [3] it was 55.2 µM; in test [4], 30.8 µM; in test [5] it was 38.6 µM. The TGI in test [17] is 26.5 µM; in test [6], over 100 µM; in test [7] it was 33.3 µM; in test [18], 48.4 µM; in test [9], 31.2 µM; in [10], 42 µM. The TGI was 67.6 µM in [11]; 57.7 µM in [12]; over 100 µM in test [19]; 43.1 µM in test [13]; over 100 µM in test [20]; 32.1 µM in test [14]. Also, the TGI in test [15] turned out to be 80.7 µM.
`CC(C)c1c(O[Si](C(C)C)(C(C)C)C(C)C)cc2c(c1O)CC[C@H]1C(C)(C)CCC[C@]21C`: the TGI in [16], in test [1], in [3], in [4], in [5] and in test [17] was over 100 µM each time. Besides, the TGI in test [6], in test [7], in [18], in [9], in test [10] and in [11] was over 100 µM in each case. The TGI in test [19], in [13], in test [20], in test [14] and in [15] was over 100 µM throughout.
Take `O=C(O)c1ccc(Nc2cnc3cc(C(F)(F)F)ccc3n2)cc1`: the TGI is over 100 µM in test [16]; over 100 µM in test [1]; 80.7 µM in [2]; over 100 µM in test [3]; over 100 µM in test [4]; over 100 µM in test [5]. In addition, the TGI in test [17], in test [6], in [18], in test [9], in test [10] and in test [11] was over 100 µM each time. Moreover, the TGI in test [12] is over 100 µM; in test [19] it was over 100 µM; in test [13] it was over 100 µM; in test [20], 60.6 µM; in [14], over 100 µM.
With `C=C(C)CCC(O)[C@](C)(O)[C@H]1[C@H](O)C[C@@]2(C)[C@@H]3CCc4c(cc(OC5OC(CO)C(O)C(O)C5O)c(O)c4C)C3(C)C(=O)C[C@]12C` (some centres not stated), the TGI in test [16], in test [1], in test [2], in [5], in test [17] and in [6] was over 100 µM throughout. The TGI in test [7], in test [18], in test [8], in test [9], in test [10] and in [11] was over 100 µM throughout. For the same compound, the TGI in test [12], in test [19], in [13], in [20], in [14] and in test [15] was over 100 µM throughout.
As to `CN(C)NC1=NS(=O)(=O)c2cc3c(=O)n(C)[nH]c3cc2S1`, the TGI in test [2], in test [3], in test [4], in test [5], in test [17] and in test [6] was over 10 µM throughout. The TGI in test [7], in [18], in test [8], in test [9], in test [10] and in test [11] was over 10 µM in each case. Further, the TGI in test [12], in test [19], in test [13], in test [20], in test [14] and in [15] was over 10 µM each time.
As to `c1ccc2c(c1)-c1ccccc1C2NC1=NCCO1`, the TGI in [16] is 53 µM; in test [1] it was 56 µM; in [2], 33.3 µM; in test [3], over 100 µM; in test [4], 29.1 µM; in [5], over 100 µM. Further, the TGI was 32.1 µM in test [17]; over 100 µM in [6]; 32.5 µM in [7]; 67.8 µM in test [18]; 27.1 µM in [9]; over 100 µM in test [10]. The TGI in [11] is over 100 µM; in test [12], 79.3 µM; in test [19], over 100 µM; in test [13], 40.3 µM; in test [20] it was 51.4 µM; in test [15], over 100 µM.
Regarding `CC(C)[Si](Oc1ccc(CC2N(C(=O)c3ccc([N+](=O)[O-])cc3)C(CCc3ccccc3)CC2(C)C=O)cc1)(C(C)C)C(C)C` (configuration not stated), the TGI in [1] was 95.5 µM; in [2] it was over 100 µM; in [3] it was over 100 µM; in test [5] it was over 100 µM; in test [6] it was over 100 µM; in [18], over 100 µM. For the same compound, the TGI in [8] is over 100 µM; in test [12] it was over 100 µM; in [19], 59.4 µM; in test [13] it was over 100 µM; in test [20] it was over 100 µM; in test [14] it was over 100 µM. Besides, the TGI in [15] was over 100 µM.
In the case of `O=C1c2ccccc2C(=O)N1NC1=NCCN1`, the TGI in test [16], in [1], in test [2], in test [4], in test [5] and in [17] was over 100 µM each time. Also, the TGI in test [6], in test [7], in [18], in test [8], in [9] and in [10] was over 100 µM throughout. The TGI in [11], in [12], in test [19], in test [13], in test [20] and in [14] was over 100 µM each time. In [15], this compound had a TGI of over 100 µM.
As for `O=C(CCCn1ccnc1[N+](=O)[O-])NCCn1cnc([N+](=O)[O-])n1`, the TGI in test [16], in test [3], in [4], in [5], in test [17] and in [6] was over 100 µM each time. Moreover, the TGI in [7], in [18], in test [8], in [9], in test [10] and in [11] was over 100 µM throughout. For the same compound, the TGI in test [12], in [13], in test [20], in test [14] and in [15] was over 100 µM in each case.
Regarding `C=CCOCn1cnc2c(=O)[nH]c(N)nc21`, the TGI in [16], in test [1], in test [2], in test [3], in test [4] and in test [5] was over 100 µM each time. Besides, the TGI in test [17], in [6], in test [7], in test [9], in [10] and in test [11] was over 100 µM throughout. Also, the TGI in [12], in [19], in test [13] and in [15] was over 100 µM in each case.
On to `O=C(OCC(OC(=O)c1ccccc1)C1CC(C2(O)CCCCC2)C(=O)O1)c1ccccc1` (configuration not stated), for which the TGI in test [16] was over 25 µM; in [1], over 25 µM; in test [2], over 25 µM; in [4], over 25 µM; in [5], 7.85 µM; in [17] it was over 25 µM. In addition, the TGI in [6], in [7], in test [18], in test [8], in test [9] and in [10] was over 25 µM each time. The TGI in test [11], in [12], in test [19], in test [13], in test [20] and in [14] was over 25 µM in each case. The same compound displayed a TGI in test [15] of over 25 µM.
With `COC(=O)c1c2c(cc3c1CC1(C3)Cc3cc4c(c(C(=O)OC)c3C1)CCC4)CCC2`, the TGI in test [16], in [1], in [2], in test [3], in test [4] and in test [5] was over 100 µM in each case. For the same compound, the TGI in test [17], in [6], in test [7], in test [18], in [11] and in test [12] was over 100 µM throughout. Moreover, the TGI in [13], in test [20], in test [14] and in test [15] was over 100 µM throughout.
As to `O=c1c2cc([N+](=O)[O-])ccc2n2n1CCCCC2`, the TGI in test [16], in [1], in test [2], in test [3], in test [4] and in test [5] was over 100 µM in each case. Further, the TGI in test [17], in test [6], in test [7], in test [18], in test [9] and in [10] was over 100 µM in each case. Further, the TGI in test [11], in test [12], in [19], in test [13], in test [20] and in [14] was over 100 µM each time. Also, the TGI in test [15] is over 100 µM.
In the case of `COc1ccc(CNc2nc3cc(C(F)(F)F)ccc3nc2C(=O)O)cc1`, the TGI in [16] was 50.6 µM; in [1], over 100 µM; in test [2] it was 71.3 µM; in test [4], 32.1 µM; in test [5], 76.3 µM; in test [17] it was 41 µM. The TGI in test [6] is over 100 µM; in test [7], 58.1 µM; in test [18], 34.1 µM; in test [8], 69.6 µM; in [9] it was over 100 µM; in test [10], over 100 µM. Moreover, the TGI in [11] is 62.6 µM; in test [12], 56.1 µM; in test [19], over 100 µM; in test [13] it was over 100 µM; in test [14], over 100 µM; in test [15], over 100 µM.
Consider `O[C@@]12Cc3c([nH]c4ccccc34)[C@@H]3Oc4c(-c5ccccc5)ccc5c4[C@@]31CCN(CC1CC1)[C@@H]2C5`, for which the TGI turned out to be 3.27 µM in test [16]; 2.92 µM in [2]; 4.62 µM in test [3]; 3.25 µM in [4]; 3.55 µM in [5]; 3.1 µM in test [17]. Also, the TGI in [6] is 3.09 µM; in test [7] it was 3.31 µM; in [18] it was 3.04 µM; in [8], 23.4 µM; in test [9] it was 3.36 µM; in test [10], 4.61 µM. Also, the TGI in test [12] is over 100 µM; in test [19], 3.95 µM; in test [13], 15 µM; in test [20] it was 3.36 µM; in [14] it was 3.45 µM; in test [15] it was 7.03 µM.

(Values after PubChem BioAssay (NCI).)
